# Test results: US5811456A, “Monoamine oxidase B inhibitors, processes for their preparation and use thereof” (priority 1994, dated 1998)
# Where two headings read alike, the source gives them in different places.
# What was measured:
# rat brain MAO B = target: T1, rat brain MAO B (Rattus norvegicus, UniProt P19643); assay: Inhibitory activity toward rat brain MAO B in vitro (14C-beta-phenylethylamine substrate); type: biochemical
# T1 construct: makes it possible to obtain a pellet enriched in mitochondria; from tissue; host or cells: Wistar rat brain without cerebellum, mitochondria-enriched pellet
# T1 sequence (P19643 1-520): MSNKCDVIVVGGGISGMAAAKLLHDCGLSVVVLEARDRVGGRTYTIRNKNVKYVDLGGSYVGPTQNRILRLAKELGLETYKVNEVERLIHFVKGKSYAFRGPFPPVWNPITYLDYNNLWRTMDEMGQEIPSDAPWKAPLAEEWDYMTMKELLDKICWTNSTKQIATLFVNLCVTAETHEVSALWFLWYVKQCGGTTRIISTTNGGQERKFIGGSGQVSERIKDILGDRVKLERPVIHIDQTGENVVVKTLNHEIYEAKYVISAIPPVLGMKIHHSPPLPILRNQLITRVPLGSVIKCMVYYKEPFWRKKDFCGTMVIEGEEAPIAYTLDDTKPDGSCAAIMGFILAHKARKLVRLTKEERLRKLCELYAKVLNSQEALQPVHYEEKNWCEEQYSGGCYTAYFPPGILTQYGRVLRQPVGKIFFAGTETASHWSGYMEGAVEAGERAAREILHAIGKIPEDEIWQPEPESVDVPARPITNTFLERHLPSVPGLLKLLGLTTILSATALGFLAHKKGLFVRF
# [1] = background; cited from earlier work
# rat brain MAO A = target: T2, rat brain MAO A (Rattus norvegicus, UniProt P21396); assay: Inhibitory activity toward rat brain MAO A in vitro (14C-serotonin substrate); type: biochemical
# T2 construct: makes it possible to obtain a pellet enriched in mitochondria; from tissue; host or cells: Wistar rat brain without cerebellum, mitochondria-enriched pellet
# T2 sequence (P21396 1-526): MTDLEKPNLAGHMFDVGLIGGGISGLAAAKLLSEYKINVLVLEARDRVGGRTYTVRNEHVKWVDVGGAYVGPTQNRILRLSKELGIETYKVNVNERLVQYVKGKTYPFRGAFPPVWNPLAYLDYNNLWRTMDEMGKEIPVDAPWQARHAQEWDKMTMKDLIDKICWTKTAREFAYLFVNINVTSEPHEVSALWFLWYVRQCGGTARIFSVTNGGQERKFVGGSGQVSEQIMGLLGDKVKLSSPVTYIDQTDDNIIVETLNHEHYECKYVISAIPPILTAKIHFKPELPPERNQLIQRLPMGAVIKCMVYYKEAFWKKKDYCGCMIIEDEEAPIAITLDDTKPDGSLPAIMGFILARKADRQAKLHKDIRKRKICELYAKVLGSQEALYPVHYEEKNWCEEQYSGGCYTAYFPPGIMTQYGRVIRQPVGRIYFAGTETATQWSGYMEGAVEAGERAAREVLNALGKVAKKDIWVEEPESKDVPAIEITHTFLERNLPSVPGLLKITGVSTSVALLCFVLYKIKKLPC
# [2] = MTT cytotoxicity test on adherent cells; type: cell-based; settings: human, hela ohio cells; for CC50 at 24 h: read-out: LD50 (concentration for which 50% of the cells are killed); for MNTC at 24 h: read-out: MC100 (maximum concentration for which all the cells are alive)
# [3] = Cytotoxicity test on the cells in suspension (Trypan blue); type: cell-based; settings: human, daudi cells; for CC50 at 24 h: read-out: LD50 (concentration for which 50% of the cells are killed); for MNTC at 24 h: read-out: MC100 (maximum concentration for which all the cells are alive)
# MAO A = settings: background; cited from earlier work
# monoamine oxidase B = target: T3, monoamine oxidase B (Rattus norvegicus, UniProt P19643); assay: Reversibility of the inhibitory activity toward MAO B (residual activity before and after washing); type: biochemical; settings: mean of 4 assays
# T3 construct: from tissue; host or cells: rat brain mitochondria (inferred from section 21.1; not restated in section 21.2)
# T3 sequence (P19643 1-520): T1 sequence (P19643 1-520)
# [4] = ap: after preincubation (30 minutes, 37° C.), read-out: IC50 MAO B
# [5] = wp: without preincubation, read-out: IC50 MAO B
# [6] = ap: after preincubation (30 minutes, 37° C.)
Structure (SMILES),IC50 (rat brain MAO B; [4]) [µM],IC50 (rat brain MAO B; [5]) [µM],MNTC at 24 h [2] [nM],CC50 at 24 h [3] [µM],MNTC at 24 h [3] [µM],also measured
"CNC(=O)N(CCC#N)N=Cc1ccc(OCc2ccccc2)cc1 [I-c2, 4-(benzyloxy)benzaldehyde (2-cyanoethyl)(N-methylcarbamoyl)hydrazone]",2.5,1.8,,,,
C#CCN(C)C(C)Cc1ccccc1 (stereo not shown) [Deprenyl],,,,,,antidepressant effects (in words) [1]: lack antidepressant effects
"CC(=O)N(CCC#N)N=Cc1ccc(OCCc2ccccc2)cc1 [I-a6, 4-(2-Phenylethozy)benzaldehyde acetyl(2-cyanoethyl)hydrazone]",0.015,3,,,,IC50 (rat brain MAO A; [6]): 6.8 µM; IC50 (rat brain MAO A; wp: without preincubation): 53 µM
CC(=O)N(CCC#N)N=Cc1ccc(OCc2ccc([N+](=O)[O-])cc2)cc1 [I-a2.2],1.4,3,650,22,10,CC50 at 24 h [2]: 30 µM
"CC(=O)N(CCC#N)N=Cc1ccc(OCc2ccc(Cl)cc2Cl)cc1 [I-a2.5, 4-[(2,4-Dichlorobenzyl)oxy]benzaldehyde acetyl(2-cyanoethyl)hydrazone]",,,,,,IC50 (rat brain MAO B): 0.38 µM; IC50 MAO B (rat brain MAO B; wp: without preincubation): precipitate
COc1ccc(COc2ccc(C=NN(CCC#N)C(C)=O)cc2)cc1 [I-a2.4],2.15,28,2300,65,12.5,CC50 at 24 h [2]: 40 µM
"CCOC(=O)N(CCO)N=Cc1ccc(OCc2ccccc2)cc1 [I-b4, 4-(Benzyloxy)benzaldehyde (2-hydroxyethyl)(ethoxycarbonyl)hydrazone]",10,35,,,,
C#CCN(C)Cc1ccccc1 [pargyline],,,,,,inhibition of MAO A (in words) (MAO A): inhibit MAO A; antidepressant effects (in words) [1]: lack antidepressant effects
CC(=O)N(CCC#N)N=Cc1ccc(OCc2ccc(Cl)cc2)cc1 [I-a2.3],0.245,11.3,600,50,10,
"CC(=O)N(CCO)N=Cc1ccc(OCc2ccccc2)cc1 [I-a4, 4-(Benzyloxy)benzaldehyde acetyl(2-hydroxyethyl)hydrazone]",0.0063,0.028,10000,100,10,IC50 (rat brain MAO A; [6]): 50 µM; IC50 (rat brain MAO A; wp: without preincubation): 50 µM; CC50 at 24 h [2]: 100 µM
"C#CCN(N=Cc1ccc(OCc2ccccc2)cc1)C(C)=O [I-a10, 4-(Benzyloxy)benzaldehyde acetylpropargylhydrazone]",0.36,4.1,,,,
"CNC(=O)N(CCC#N)N=Cc1ccccc1 [I-c1, Benzaldehyde (2-cyanoethyl)(N-methylcarbamoyl)hydrazone]",120,280,,,,
"CCOC(=O)N(CCC#N)N=Cc1ccc(OCc2ccccc2)cc1 [I-b2, 4-(Benzylozy)benzaldehyde (2-cyanoethyl)(ethoxycarbonyl)hydrazone]",6.3,22,,,,
CC(=O)N(CCC#N)N=Cc1ccc(OCc2ccc(C)cc2)cc1 [I-a2.1],0.69,43,,,,
"CC(=O)N(CCC#N)N=Cc1ccc(OCc2ccccc2)cc1 [I-a2, 4-(Benzyloxy)benzaldehyde acetyl(2-cyanoethyl)hydrazone]",0.003,0.035,10000,100,10,"Percentage of residual MAO activity (monoamine oxidase B; after washing, 30 min): 105%; Percentage of residual MAO activity (monoamine oxidase B; before washing, 30 min incubation at 37° C.): 14%; CC50 at 24 h [2]: 100 µM"
C#CCN(C)CCCOc1ccc(Cl)cc1Cl [clorgyline],,,,,,inhibition of MAO A (in words) (MAO A): inhibit MAO A
